From patent publication US20250221936A1, “ENGINEERED HEMICHANNELS, ENGINEERED VESICLES, AND USES THEREOF” (VIRGINIA TECH INTELLECTUAL PROPERTIES, INC., priority 2018, published 2025)

What was measured:
[1] = test system: Cx43 S368 phosphorylation; test: Western blot of Cx43-pS368 in peptide-infused LV; parameters: species or system mouse; details: peptide infused 20 minutes; relative to vehicle control
Method: Protein samples from all related experiments (PKC and EDC cross-linking assays and Westerns on heart lysates) were processed in lithium dodecyl sulfate sample loading buffer (Bio-Rad, 1610737 CA), heated at 95° C. for 5 minutes. Samples from PKC and cross-linking assays were loaded on 18% Tris-Glycine Stain-Free gels (Bio-Rad, 5678073 CA); samples from heart lysates were loaded on 10% Tris-Glycine Stain-Free el (Bio-Rad: 5678033 CA), resolved by SDS-PAGE, transferred to PVDF FL membrane on a Turbo Transfer System (Bio-Rad, 1704155 CA). alpha CT1 eluted from cross-linking reactions was detected on blots against biotin with HRP-NeutrAvidin (ThermoFisher, 31001, MA). Signals were detected by HR-based chemiluminescence (ThermoFisher, 34095, MA) and exposed to ECL Chemidoc (Bio-Rad, 1708280 CA) and digitized using Image Lab software (Bio-Rad, 1709692 CA). Detailed methods have also been previously described^11, 13, 14 Surface Plasmon Resonance
Male, 3-month-old, body weight 25±5 g C57BL/6 mice were used for this study and obtained from Charles River. Animals were randomly assigned to experimental groups and Left ventricular (LV) function was measured and myocardial ischemia-reperfusion injury (I/R) was induced as previously described^23. Briefly, 15 minutes after the injection of heparin at a dose of 200U/10 g body weight, the mouse was anesthetized by inhalation of isoflurane vapor and subjected to cervical dislocation upon the cessation of respiration. Thoracotomy was immediately performed and the heart excised. The heart was arrested in ice-cold Krebs-Henseleit (KH) buffer (in mM: 25 NaHCO3, 0.5 EDTA, 5.3 KCl, 1.2 MgSO4, 0.5 pyruvate, 118 NaCl, 10 glucose, 2.5 CaCl2). The aorta was isolated and cannulated in a Langendorff perfusion system. The heart was then perfused at a constant pressure of 75 mmHg with KH buffer, which was continually bubbled with 5% CO2/95% O2 at 37° C. Effluent from the Thebesian veins was drained by a thin polyethylene tube (PE-10) pierced through the apex of the LV. […] After a 30-minute stabilization period, a balloon volume (BV) generating an LV end-diastolic-pressure (EDP) of 0 mmHg, was determined for the heart. The BV was then increased stepwise up through 1, 2, 5, 8, 10, 12, 15, 18, 20, 25, 30 μl increments of 1-5 μl and contractile performance were recorded for 10 seconds at each step. […] Data was recorded and analyzed using PowerLab 4/35 (ADInstruments, PL3504, CO) and LabChart V7 (ADInstruments, CO). […] Baseline function (determined by EDP at about 8-10 mmHg) was recorded for 5 minutes. […] BV was retaken through the stepwise sequence of 1-5 μl increments between 1 and 30 μl, with contractile performance again being recorded for 10 seconds at each step. Cardiac LV function was recorded throughout the procedure. […]

Cx43 CT-KK/QQ = molecular target: T1, Cx43 CT-KK/QQ (Rattus norvegicus, UniProt P08050, K345Q/K346Q); test: Surface plasmon resonance, Cx43 CT-KK/QQ analyte; assay type: binding; details: biotin-peptide immobilized on streptavidin chip
T1 construct: pGEX-6-P2 Cx43 CT amino acids 255-382; GST (N, cleaved yes); made in house; host or cells: E. coli BL21
Excerpt: Peptides were synthesized and quality checked for fidelity and purity using High Performance Liquid Chromatography and mass spectrometry (LifeTein, Hillsborough, NJ). Biotinylated peptides were designed for surface plasmon resonance experiments. Glutathione-S-Transferase (GST) fusion protein constructs composed of the Cx43-CT (pGEX-6-P2 Cx43 CT amino acids 255-382), ZO-1 PDZ1, PDZ2 and PDZ3 were isolated and purified from isopropyl-b-D-thiogalactoside (IPTG)-induced BL21 bacteria using standard procedures, described in references 13, 14, 20. The pGEX6p2-Cx43 CT plasmid was obtained from Prof. Paul L. Sorgen (University of Nebraska Medical Center, USA). Cx43 CT mutant (Cx43 CT-KK/QQ; amino acids Lys345 Lys346 to Gln 345 Gln 346) was developed by site-directed mutagenesis of the pGEX6p2-Cx43 CT plasmid (Agilent technologies, QuikChange II Site-Directed Mutagenesis Kit). The mutation was verified by sequencing. For surface plasmon resonance experiments, the GST was removed using PreScission protease, yielding Cx43 CT protein (wild-type or mutant).
Efficacy of the interaction of each alpha CT1 variant with Cx43 CT or Cx43 CT-KK/QQ was tested using surface plasmon resonance (SPR) as described previously 20. In brief, SPR experiments were performed using a Biacore T200 (GE Healthcare). Equal amounts (response units/RU) of biotin-alpha CT1 variants were immobilized on each flow cell of a streptavidin-coated sensor chip (Biacore Inc) using immobilization buffer (in mM: 10 HEPES, 1 EDTA, 100 NaCl, 0.005% Tween-20) at pH 7.4. Measurements with wild-type (wt) Cx43 CT and mutant Cx43 CT-KK/QQ analytes were done in running buffer (in mM: 10 HEPES, 100 NaCl, pH 7.4) at a flow rate of 30 μl/min. Binding of analytes were verified at different concentrations, in random order (injection volume 120 μl). Interacting proteins were then unbound by injection of […] regeneration buffer (50 mM NaOH and 1 M NaCl) at a flow rate of 10 μl/min. Background levels were obtained from a reference cell containing a biotin-control peptide in which the reversed sequence of the last 9 amino acids of Cx43 was fused to biotin-antennapedia. The RU values obtained with biotin-control peptide were subtracted from the RU values obtained with the different biotin-alphaCT1 variants (wild-type or mutant) to generate the different response curves.

T1 sequence (P08050 255-382 K345Q/K346Q): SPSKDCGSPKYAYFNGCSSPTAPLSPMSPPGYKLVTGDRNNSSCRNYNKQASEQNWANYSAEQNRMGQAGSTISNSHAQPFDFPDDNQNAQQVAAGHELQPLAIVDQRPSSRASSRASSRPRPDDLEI

Sequence | Cx43 pS368 in LV samples [1] | SPR binding to Cx43 CT-KK/QQ (Cx43 CT-KK/QQ)
RQPKIWFPNRRKPWKK RPRPAALAI (RQPKIWFPNRRKPWKKRPRPAALAI) [M1 AALAI] | no propensity to upregulate S368 phosphorylation | unable mediate interactions
RQPKIWFPNRRKPWKKRPRPDDLAI [M3 DDLAI] | no propensity to upregulate S368 phosphorylation | unable mediate interactions
RQPKIWFPNRRKPWKKRPRPDDLE [alpha CT1-I] | significant increases in phosphorylation | –
RQPKIWFPNRRKPWKKRPRPDDLEI [alpha CT1] | significant increases in phosphorylation | unable mediate interactions
